From patent publication US6017917A, “Guanidine derivatives” (Fujisawa Pharamceutical Co., Ltd., priority 1996, dated 2000)
Where a name gives a salt, the structure may show the parent alone.

Target: T1, Na^+ /H^+ exchanger (Rattus norvegicus, UniProt P26431)
T1 construct: endogenous in cells; host or cells: thymocytes freshly isolated from the thymus of a male SD rat
Test: Inhibitory activity on Na^+ /H^+ exchange in cells (swelling of thymocytes in sodium propionate medium)
Type: cell-based, rat (SD strain)
Conditions: apparent Ki from Lineweaver-Burk plot, sodium-propionate medium pH 6.8, rate of swelling, 3-5 concentrations
Procedure: [2] Inhibitory activity on Na^+ /H^+ exchange in cells
Procedure was carried out according to a similar manner to the method described in Enzymology 173 , 777 (1989).
One male SD strain rat weighing 250-300 g was sacrificed with the blow on the head. Then, the thymus was removed into ice-cold NaCl medium (140 mM sodium chloride, 1 mM potassium chloride, 1 mM calcium chloride, 1 mM magnesium chloride, 10 mM glucose and 20 mM N-2-hydroxyethylpiperazine-N'-2-ethanesulfonic acid (HEADS)--pH 7.3), cut in small fragments, and transferred to glass homogenizer. The cells were dissociated by gentle strokes, and the resulting suspension was filtrated through six layers of surgical gauze and the filtrate was centrifuged at 4° C. at 1000 g for 5 minutes. The pellet was resuspended in RPMI 1640 medium (pH 7.3) at room temperature to adjust final cell concentration (1×10^7 cells/ml).
This method detects the swelling that accompanies activation of Na^+ /H^+ exchanger in cells incubated with sodium propionate. Propionic acid rapidly penetrates through the membrane. […]
Cell sizing and counting were performed electrically with the Coulter Counter-Channelyzer (AT-II). […] Rate of Swelling (Δ volume/min.) was measured by using 3-5 concentrations of test compound. Then, apparent Ki value of test compound was calculated by using Line weaver-Burk plot.

T1 sequence (P26431 whole entry): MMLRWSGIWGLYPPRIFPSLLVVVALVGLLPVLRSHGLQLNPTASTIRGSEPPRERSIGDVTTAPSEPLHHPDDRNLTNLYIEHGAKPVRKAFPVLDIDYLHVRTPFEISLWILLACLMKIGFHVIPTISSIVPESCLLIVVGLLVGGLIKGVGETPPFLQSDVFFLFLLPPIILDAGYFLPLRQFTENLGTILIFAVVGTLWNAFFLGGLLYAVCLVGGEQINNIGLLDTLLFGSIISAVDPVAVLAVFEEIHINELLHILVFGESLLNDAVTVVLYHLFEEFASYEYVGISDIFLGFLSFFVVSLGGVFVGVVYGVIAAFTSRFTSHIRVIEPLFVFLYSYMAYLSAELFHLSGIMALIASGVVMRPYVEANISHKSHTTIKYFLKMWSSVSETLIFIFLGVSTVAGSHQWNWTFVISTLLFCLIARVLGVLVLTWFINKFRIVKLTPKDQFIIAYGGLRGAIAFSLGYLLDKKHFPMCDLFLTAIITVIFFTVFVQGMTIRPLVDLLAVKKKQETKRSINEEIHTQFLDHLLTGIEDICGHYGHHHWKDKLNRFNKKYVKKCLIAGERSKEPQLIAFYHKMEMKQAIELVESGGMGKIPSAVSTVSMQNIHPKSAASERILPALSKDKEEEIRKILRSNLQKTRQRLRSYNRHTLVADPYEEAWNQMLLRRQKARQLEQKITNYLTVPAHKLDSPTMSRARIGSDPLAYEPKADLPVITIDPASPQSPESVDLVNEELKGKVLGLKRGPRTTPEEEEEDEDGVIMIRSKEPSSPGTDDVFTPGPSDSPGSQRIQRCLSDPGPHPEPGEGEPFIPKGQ

NC(N)=NC(=O)c1cc(C(=O)NCCN2CCOCC2)cc(-c2cc(Cl)ccc2Cl)c1 [(a), [5-(2,5-dichlorophenyl)-3-[(2-morpholinoethyl)-carbamoyl]benzoyl]guanidine.dihydrochloride]
Ki: < 100 nM
